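1) Cells in 96-well plates. 2) Compound, 48 h, 5 concentrations. 3) Linear interpolation between surrounding doses. 4) Unreached endpoint = highest concentration. GI50 marks 50% less growth.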 The source made the active and inactive calls. No stated cut-off is given here; in the data, active = GI50 up to about 1.1 µM and inactive = higher.

The record followed here is ChEMBL document CHEMBL1201862, “PubChem BioAssay data set” (2004).

Among the test systems are HOP-62; OVCAR-8; NCI-H226; RPMI-8226; HCT-116; PC-3; UACC-257; NCI/ADR-RES; HL-60; SN12C; ACHN; MOLT-4; UO-31; KM12; MDA-N; M14; HT-29; TK-10; SR.
Holding throughout (test): growth of human tumour cells (NCI), 48 h

For `O=C1c2cccnc2C(=O)c2c1nc1ccccc1c2-c1ccc2c3c(nc4ccccc42)C(=O)c2cccnc2-c13`, the GI50 was 1.17 µM (inactive) with HOP-62; 0.37 µM (active) in the experiment with OVCAR-8; 0.859 µM (active) in the experiment with NCI-H226; 1.63 µM (inactive) with RPMI-8226; 0.459 µM (active) with HCT-116; 1.44 µM (inactive) with PC-3. The GI50 in the experiment on UACC-257 was 2.04 µM (inactive); with NCI/ADR-RES, 1.45 µM (inactive); with HL-60, 1.2 µM (inactive); in the experiment on SN12C, 0.912 µM (active); in the experiment with ACHN, 0.383 µM (active); in the experiment with MOLT-4 it was 0.638 µM (active). Further, the GI50 in the experiment on UO-31 was 1.24 µM (inactive); in the experiment on KM12, 0.971 µM (active); with MDA-N, 2.13 µM (inactive); with M14 it was 0.405 µM (active); with HT-29, 2.38 µM (inactive); in the experiment on TK-10, 2.76 µM (inactive). In the experiment with SR, the GI50 was < 0.01 µM (active).
With `CN(C)CCNS(=O)(=O)c1ccc(N)cc1`, the GI50 is 18.5 µM (inactive) in the experiment with HOP-62; > 100 µM (inactive) in the experiment on OVCAR-8; > 100 µM (inactive) with NCI-H226; > 100 µM (inactive) in the experiment with RPMI-8226; > 100 µM (inactive) with HCT-116; 19.9 µM (inactive) in the experiment with PC-3. The GI50 in the experiment on UACC-257, with NCI/ADR-RES, in the experiment with HL-60, in the experiment on SN12C, in the experiment with ACHN and in the experiment on MOLT-4 was > 100 µM (inactive) throughout. The GI50 with UO-31, in the experiment on KM12, with MDA-N, in the experiment on M14, in the experiment with HT-29 and with TK-10 was > 100 µM (inactive) each time. Also, in the experiment on SR, the GI50 is > 100 µM (inactive).
`O=C1c2cc3c(cc2CC12Cc1ccccc1C2)CCC3`: the GI50 with HOP-62 is 27.8 µM (inactive); in the experiment on OVCAR-8 it was 21.2 µM (inactive); with NCI-H226, 23.4 µM (inactive); with RPMI-8226 it was 21.9 µM (inactive); in the experiment with HCT-116, 22.2 µM (inactive); with PC-3 it was 34 µM (inactive). The GI50 in the experiment on UACC-257 was 20.1 µM (inactive); in the experiment with NCI/ADR-RES, 28.4 µM (inactive); with HL-60, 25.5 µM (inactive); in the experiment with SN12C, 29.1 µM (inactive); in the experiment with ACHN, 27.8 µM (inactive); in the experiment with MOLT-4, 19.9 µM (inactive). In addition, the GI50 with UO-31 was 26.2 µM (inactive); in the experiment with KM12, 24.9 µM (inactive); in the experiment with MDA-N it was 27.3 µM (inactive); with M14 it was 23.2 µM (inactive); in the experiment on HT-29, 21.5 µM (inactive); in the experiment on TK-10, 42.5 µM (inactive). In the experiment on SR, the GI50 is 35.9 µM (inactive).
Turning to `O=c1cc(CO)oc(C(O)c2ccccc2)c1O` (stereo not given), the GI50 in the experiment with HOP-62, with OVCAR-8, in the experiment on NCI-H226, with RPMI-8226, with HCT-116 and in the experiment with PC-3 was > 100 µM (inactive) each time. Also, the GI50 in the experiment with UACC-257, in the experiment with NCI/ADR-RES, in the experiment with HL-60, in the experiment on SN12C, in the experiment with ACHN and in the experiment on MOLT-4 was > 100 µM (inactive) each time. The GI50 in the experiment with UO-31, in the experiment on KM12, with MDA-N, with M14, with HT-29 and in the experiment on TK-10 was > 100 µM (inactive) each time. Besides, the GI50 with SR is > 100 µM (inactive).
With `Cc1ccc2c(c1)C=CC1(O2)N(c2ccccc2)C(=S)OC1(C)C` (stereo not given), the GI50 is > 100 µM (inactive) in the experiment with HOP-62; > 100 µM (inactive) in the experiment with OVCAR-8; > 100 µM (inactive) with NCI-H226; 22.9 µM (inactive) in the experiment on RPMI-8226; 21.5 µM (inactive) with HCT-116; 9.27 µM (inactive) in the experiment on PC-3. Further, the GI50 in the experiment with UACC-257 is 45.1 µM (inactive); with NCI/ADR-RES it was > 100 µM (inactive); in the experiment with HL-60 it was 5.37 µM (inactive); with SN12C, > 100 µM (inactive); in the experiment with ACHN, > 100 µM (inactive); in the experiment with MOLT-4 it was 29.9 µM (inactive). Moreover, the GI50 with UO-31 was 28.5 µM (inactive); in the experiment on KM12 it was 34.5 µM (inactive); with MDA-N it was 29.1 µM (inactive); in the experiment with M14 it was 43.8 µM (inactive); in the experiment on HT-29, 41.5 µM (inactive); in the experiment on TK-10 it was > 100 µM (inactive). Besides, in the experiment with SR, the GI50 is 14.5 µM (inactive).
Regarding `N=C(N)NS(=O)(=O)c1ccc(NC(=O)c2cccc3c(NNc4ccc(S(N)(=O)=O)cc4)c4ccccc4nc23)cc1`, the GI50 was > 100 µM (inactive) in the experiment on HOP-62; 66.1 µM (inactive) with OVCAR-8; > 100 µM (inactive) in the experiment on NCI-H226; 39.6 µM (inactive) in the experiment on RPMI-8226; 53.8 µM (inactive) with HCT-116; 59.7 µM (inactive) in the experiment with PC-3. Besides, the GI50 was > 100 µM (inactive) with UACC-257; > 100 µM (inactive) with NCI/ADR-RES; 30.6 µM (inactive) with HL-60; 99.3 µM (inactive) in the experiment on SN12C; 66.5 µM (inactive) in the experiment on ACHN; 28.2 µM (inactive) with MOLT-4. For the same molecule, the GI50 was > 100 µM (inactive) with UO-31; 50.7 µM (inactive) in the experiment on KM12; > 100 µM (inactive) in the experiment on MDA-N; > 100 µM (inactive) in the experiment with M14; 47 µM (inactive) in the experiment with HT-29; > 100 µM (inactive) in the experiment with TK-10. The GI50 with SR was 35 µM (inactive).
Take `CN(/N=C/c1cccc2cccnc12)c1ccc(Cl)cc1[N+](=O)[O-]`: the GI50 in the experiment on HOP-62, with OVCAR-8, in the experiment with NCI-H226, in the experiment on RPMI-8226, in the experiment with HCT-116 and in the experiment with PC-3 was > 100 µM (inactive) in each case. The GI50 with UACC-257 was > 100 µM (inactive); with NCI/ADR-RES, 87.1 µM (inactive); with HL-60, > 100 µM (inactive); in the experiment with SN12C it was > 100 µM (inactive); with ACHN it was > 100 µM (inactive); in the experiment with MOLT-4 it was 76.7 µM (inactive). The GI50 with UO-31 was > 100 µM (inactive); in the experiment with KM12, 96.8 µM (inactive); with MDA-N it was > 100 µM (inactive); with M14, > 100 µM (inactive); in the experiment with HT-29 it was 59.4 µM (inactive); in the experiment with TK-10, > 100 µM (inactive). In addition, the GI50 in the experiment on SR was > 100 µM (inactive).
For `C=CCc1cc(C(Cc2ccccc2)NC(C)C)cc(OCc2ccccc2)c1OCc1ccccc1` (stereo not given), the GI50 was 15.9 µM (inactive) in the experiment with HOP-62; 17 µM (inactive) in the experiment with OVCAR-8; 17.7 µM (inactive) with NCI-H226; 12.9 µM (inactive) with RPMI-8226; 16.4 µM (inactive) with HCT-116; 15.3 µM (inactive) with PC-3. Further, the GI50 is 18.8 µM (inactive) in the experiment on UACC-257; 16.3 µM (inactive) with NCI/ADR-RES; 14.5 µM (inactive) in the experiment with HL-60; 15.6 µM (inactive) in the experiment on SN12C; 16.9 µM (inactive) in the experiment on ACHN; 10.7 µM (inactive) with MOLT-4. The GI50 with UO-31 was 10.1 µM (inactive); in the experiment with KM12, 20.7 µM (inactive); in the experiment with MDA-N, 13.2 µM (inactive); in the experiment on M14 it was 15.3 µM (inactive); in the experiment on HT-29 it was 15.1 µM (inactive); with TK-10 it was 17.1 µM (inactive). Moreover, the GI50 in the experiment with SR was 12.2 µM (inactive).
As to `COC(=O)c1c(C(=O)OC)c2ccccn2c1-c1cc(OC)c(Br)c(=O)o1`, the GI50 in the experiment with HOP-62, with OVCAR-8, with NCI-H226, in the experiment on RPMI-8226, with HCT-116 and in the experiment on PC-3 was > 100 µM (inactive) each time. Further, the GI50 in the experiment on UACC-257, with NCI/ADR-RES, in the experiment with HL-60, with SN12C, with ACHN and with MOLT-4 was > 100 µM (inactive) in each case. In addition, the GI50 with UO-31, in the experiment on KM12, in the experiment with MDA-N, with M14, in the experiment on HT-29 and with TK-10 was > 100 µM (inactive) in each case. In the experiment with SR, the GI50 was > 100 µM (inactive).
As for `O=C(OC12CC3CC(CC(C3)C1)C2)c1ccc(NCc2cc(O)ccc2O)cc1`, the GI50 with HOP-62 is 4.52 µM (inactive); with OVCAR-8, 1.1 µM (active); with NCI-H226, 1.33 µM (inactive); with RPMI-8226 it was 0.0966 µM (active); in the experiment with HCT-116, 1.17 µM (inactive); in the experiment with PC-3, 0.667 µM (active). Further, the GI50 in the experiment on UACC-257 is 1.24 µM (inactive); with NCI/ADR-RES, 0.637 µM (active); with HL-60, 0.0491 µM (active); with SN12C it was 1.42 µM (inactive); in the experiment on ACHN, 0.968 µM (active); in the experiment on MOLT-4 it was 0.0944 µM (active). Also, the GI50 with UO-31 is 0.417 µM (active); in the experiment with KM12, 1.16 µM (inactive); with MDA-N, 1.32 µM (inactive); with M14, 1.44 µM (inactive); in the experiment with HT-29 it was 1.48 µM (inactive); with TK-10, 0.885 µM (active). In addition, in the experiment on SR, the GI50 is 0.132 µM (active).
